Patent US6998143B1, “Ferric fortification system” (Nestec S.A., priority 1999, dated 2006)

How the values were obtained:
[1] = Lipid oxidation induction time in fish oil (Rancimat); type: physicochemical; details: fish oil in place of chicken fat, 100° C.
Method: The powder of example 3 is added to chicken fat to provide 40 mg of iron per 1000 g of fat. As a negative control, ferric sulfate is added to chicken fat to provide the same iron loading. Chicken fat without any added iron is used as a positive control.
The fat samples are heated to 100° C. and the lipid oxidation induction time is determined using a Rancimat. No difference in induction time between the fat fortified with the powder of example 3 and the positive control is determined. The induction time of the negative control is 30 to 40% less.
The procedure of example 8 is repeated except that fish oil is used in place of chicken fat. The results are similar.

[2] = tested on: weanling male Sprague-Dawley rats; assay: Iron bioavailability by hemoglobin repletion in anemic rats (slope-ratio); type: in vivo, rat
Method: Animals:—The animals used are weanling male Sprague-Dawley rats aged 3 weeks (IFFA-CREDO, L'Arbresle, France).
This diet is casein based and provides for the nutritional requirements of growing rats except for iron.
Diet 1:—The control diet supplemented with the complex of example 2 to provide 10 mg/kg iron.
Diet 2:—The control diet supplemented with the complex of example 2 to provide 20 mg/kg iron.
1) Hemoglobin analysis is performed by anaesthetizing the rats with isoflurane and then drawing a sample of 200 μL of blood from the orbital venous plexus. Blood hemoglobin level in the sample is determined by the cyanmethemoglobin method (Hb kit MPR 3, Bochringer Mannheim GmbH, Germany), using an automated instrument (Hemocue, Baumann-Medical SA, Wetzikon, Switzerland). Commercial quality control blood samples (Dia-HT Kontrollblut, Dia MED, Cressier, Switzerland) having a range of hemoglobin levels are measured with all hemoglobin determinations.
A multiple regression equation relates amounts of iron added to the hemoglobin levels. The equation provides one straight line per diet which intercepts at zero dose.
Procedure:—Rats are housed individually in polycarbonate cages, fitted with stainless steel grids. The animals are allowed free access to distilled water. […] Fresh diet is supplied daily. Spoiling of diet by rats is reduced by covering the diet with a grid.
After 24 days, hemoglobin and weight is determined. Fifty rats with hemoglobin levels between […] are randomized into 5 groups of 10 having approximately equal mean hemoglobin and body weight. Each group of animals is fed one of the experimental diets for 14 days. The rats are fed the diets ad libitum beginning with 20 g/day at day 0. The rats have free access to distilled water. Individual food consumption is measured daily. After 14 days, the rats are weighed and hemoglobin is determined.

[3] = diet with 10 mg/kg added Fe for 14 days
[4] = diet with 20 mg/kg added Fe for 14 days

| Compound | lipid oxidation induction time results compared with those of example 8 [1] | Initial hemoglobin, mean (standard deviation) ([2]; baseline before diet with 10 mg/kg added Fe) | Initial hemoglobin, mean (standard deviation) ([2]; baseline before diet with 20 mg/kg added Fe) | Difference in hemoglobin (final minus initial), mean [2, 3] [g/dL] | Final hemoglobin, mean [2, 3] [g/dL] | Difference in hemoglobin (final minus initial), mean [2, 4] [g/dL] | Final hemoglobin, mean [2, 4] [g/dL] |
| --- | --- | --- | --- | --- | --- | --- | --- |
| O=S(=O)([O-])[O-].O=S(=O)([O-])[O-].O=S(=O)([O-])[O-].[Fe+3].[Fe+3] [ferric sulfate] | similar | – | – | – | – | – | – |
| O.O.O.O.O.O.O.O=S(=O)([O-])[O-].[Fe+2] [FeSO4.7H2O, ferrous sulfate heptahydrate] | – | 5.12 (0.41) g/dl | 5.12 (0.40) g/dl | 3.54 | 8.66 | 6.41 | 11.53 |
